Measurements taken from patent EP0726263A2, “Herbicidal (1,3,4)oxadiazoles and thiadiazoles” (American Cyanamid Company, priority 1995, dated 1996).

Experiments:
Type in all cases: in vivo
Abutilon theophrasti [1] = assay: Herbicidal activity, preemergence test; details: pre; sprayed onto soil, 800 g of active material per hectare; evaluated 3 weeks after treatment
Procedure, shortened: (§1)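 Acetone/TRITON X-155 formulation diluted in water, sprayed onto horticultural loam soon after sowing at 800 g active material per hectare in 900 litres per hectare. Visual 0-9 rating of stand, vigor, malformation, size and chlorosis versus untreated sown soil, scored 3 weeks after treatment.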

Alopecurus myosuroides [2] = assay: Herbicidal activity, preemergence test; details: pre; sprayed onto soil, 800 g of active material per hectare; evaluated 3 weeks after treatment
Procedure, shortened: as §1

Amaranthus retroflexus [3] = assay: Herbicidal activity, preemergence test; details: pre; sprayed onto soil, 800 g of active material per hectare; evaluated 3 weeks after treatment
Procedure, shortened: as §1

Ambrosia artemisifolia [4] = assay: Herbicidal activity, preemergence test; details: pre; sprayed onto soil, 800 g of active material per hectare; evaluated 3 weeks after treatment
Procedure, shortened: as §1

Chenopodium album [5] = assay: Herbicidal activity, preemergence test; details: pre; sprayed onto soil, 800 g of active material per hectare; evaluated 3 weeks after treatment
Procedure, shortened: as §1

Galium aparine [6] = assay: Herbicidal activity, preemergence test; details: pre; sprayed onto soil, 800 g of active material per hectare; evaluated 3 weeks after treatment
Procedure, shortened: as §1

Glycine max [7] = assay: Herbicidal activity, preemergence test; details: pre; sprayed onto soil, 800 g of active material per hectare; evaluated 3 weeks after treatment
Procedure, shortened: as §1

Gossypium hirsutum [8] = assay: Herbicidal activity, preemergence test; details: pre; sprayed onto soil, 800 g of active material per hectare; evaluated 3 weeks after treatment
Procedure, shortened: as §1

Hordeum vulgare [9] = assay: Herbicidal activity, preemergence test; details: pre; sprayed onto soil, 800 g of active material per hectare; evaluated 3 weeks after treatment
Procedure, shortened: as §1

Ipomoea hederacea [10] = assay: Herbicidal activity, preemergence test; details: pre; sprayed onto soil, 800 g of active material per hectare; evaluated 3 weeks after treatment
Procedure, shortened: as §1

Lamium purpureum [11] = assay: Herbicidal activity, preemergence test; details: pre; sprayed onto soil, 800 g of active material per hectare; evaluated 3 weeks after treatment
Procedure, shortened: as §1

Matricaria inodora [12] = assay: Herbicidal activity, preemergence test; details: pre; sprayed onto soil, 800 g of active material per hectare; evaluated 3 weeks after treatment
Procedure, shortened: as §1

Papaver rhoeas [13] = assay: Herbicidal activity, preemergence test; details: pre; sprayed onto soil, 800 g of active material per hectare; evaluated 3 weeks after treatment
Procedure, shortened: as §1

Setaria viridis [14] = assay: Herbicidal activity, preemergence test; details: pre; sprayed onto soil, 800 g of active material per hectare; evaluated 3 weeks after treatment
Procedure, shortened: as §1

Stellaria media [15] = assay: Herbicidal activity, preemergence test; details: pre; sprayed onto soil, 800 g of active material per hectare; evaluated 3 weeks after treatment
Procedure, shortened: as §1

Triticum aestivum [16] = assay: Herbicidal activity, preemergence test; details: pre; sprayed onto soil, 800 g of active material per hectare; evaluated 3 weeks after treatment
Procedure, shortened: as §1

Veronica persica [17] = assay: Herbicidal activity, preemergence test; details: pre; sprayed onto soil, 800 g of active material per hectare; evaluated 3 weeks after treatment
Procedure, shortened: as §1

Zea mays [18] = assay: Herbicidal activity, preemergence test; details: pre; sprayed onto soil, 800 g of active material per hectare; evaluated 3 weeks after treatment
Procedure, shortened: as §1

Abutilon theophrasti [19] = assay: Herbicidal activity, postemergence test; details: post; sprayed onto seedling plants, 800 g of active material per hectare; evaluated 2 weeks after treatment
Procedure, shortened: (§2)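 Spray dose 800 g a.i./ha in 900 L/ha; acetone stock with 0.4% Triton X-155, water-diluted. Pre: sown loam soil, read at 3 wk. Post: seedling plants, read at 2 wk. Visual 0-9 rating vs untreated.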

Alopecurus myosuroides [20] = assay: Herbicidal activity, postemergence test; details: post; sprayed onto seedling plants, 800 g of active material per hectare; evaluated 2 weeks after treatment
Procedure, shortened: as §2

Amaranthus retroflexus [21] = assay: Herbicidal activity, postemergence test; details: post; sprayed onto seedling plants, 800 g of active material per hectare; evaluated 2 weeks after treatment
Procedure, shortened: as §2

Ambrosia artemisifolia [22] = assay: Herbicidal activity, postemergence test; details: post; sprayed onto seedling plants, 800 g of active material per hectare; evaluated 2 weeks after treatment
Procedure, shortened: as §2

Chenopodium album [23] = assay: Herbicidal activity, postemergence test; details: post; sprayed onto seedling plants, 800 g of active material per hectare; evaluated 2 weeks after treatment
Procedure, shortened: as §2

Galium aparine [24] = assay: Herbicidal activity, postemergence test; details: post; sprayed onto seedling plants, 800 g of active material per hectare; evaluated 2 weeks after treatment
Procedure, shortened: as §2

Glycine max [25] = assay: Herbicidal activity, postemergence test; details: post; sprayed onto seedling plants, 800 g of active material per hectare; evaluated 2 weeks after treatment
Procedure, shortened: as §2

Gossypium hirsutum [26] = assay: Herbicidal activity, postemergence test; details: post; sprayed onto seedling plants, 800 g of active material per hectare; evaluated 2 weeks after treatment
Procedure, shortened: as §2

Hordeum vulgare [27] = assay: Herbicidal activity, postemergence test; details: post; sprayed onto seedling plants, 800 g of active material per hectare; evaluated 2 weeks after treatment
Procedure, shortened: as §2

Ipomoea hederacea [28] = assay: Herbicidal activity, postemergence test; details: post; sprayed onto seedling plants, 800 g of active material per hectare; evaluated 2 weeks after treatment
Procedure, shortened: as §2

Lamium purpureum [29] = assay: Herbicidal activity, postemergence test; details: post; sprayed onto seedling plants, 800 g of active material per hectare; evaluated 2 weeks after treatment
Procedure, shortened: as §2

Matricaria inodora [30] = assay: Herbicidal activity, postemergence test; details: post; sprayed onto seedling plants, 800 g of active material per hectare; evaluated 2 weeks after treatment
Procedure, shortened: as §2

Papaver rhoeas [31] = assay: Herbicidal activity, postemergence test; details: post; sprayed onto seedling plants, 800 g of active material per hectare; evaluated 2 weeks after treatment
Procedure, shortened: as §2

Setaria viridis [32] = assay: Herbicidal activity, postemergence test; details: post; sprayed onto seedling plants, 800 g of active material per hectare; evaluated 2 weeks after treatment
Procedure, shortened: as §2

Stellaria media [33] = assay: Herbicidal activity, postemergence test; details: post; sprayed onto seedling plants, 800 g of active material per hectare; evaluated 2 weeks after treatment
Procedure, shortened: as §2

Triticum aestivum [34] = assay: Herbicidal activity, postemergence test; details: post; sprayed onto seedling plants, 800 g of active material per hectare; evaluated 2 weeks after treatment
Procedure, shortened: as §2

Veronica persica [35] = assay: Herbicidal activity, postemergence test; details: post; sprayed onto seedling plants, 800 g of active material per hectare; evaluated 2 weeks after treatment
Procedure, shortened: as §2

Zea mays [36] = assay: Herbicidal activity, postemergence test; details: post; sprayed onto seedling plants, 800 g of active material per hectare; evaluated 2 weeks after treatment
Procedure, shortened: as §2

| SMILES | ABUTH control rating (0-9) (Abutilon theophrasti [1]) | ALOMY control rating (0-9) (Alopecurus myosuroides [2]) | AMARE control rating (0-9) (Amaranthus retroflexus [3]) | AMBEL control rating (0-9) (Ambrosia artemisifolia [4]) | CHEAL control rating (0-9) (Chenopodium album [5]) | GALAP control rating (0-9) (Galium aparine [6]) | GLXMA control rating (0-9) (Glycine max [7]) | GOSHI control rating (0-9) (Gossypium hirsutum [8]) | HORVW control rating (0-9) (Hordeum vulgare [9]) | IPOHE control rating (0-9) (Ipomoea hederacea [10]) | LAMPU control rating (0-9) (Lamium purpureum [11]) | MATIN control rating (0-9) (Matricaria inodora [12]) | PAPRH control rating (0-9) (Papaver rhoeas [13]) | SETVI control rating (0-9) (Setaria viridis [14]) | STEME control rating (0-9) (Stellaria media [15]) | TRZAW control rating (0-9) (Triticum aestivum [16]) | VERPE control rating (0-9) (Veronica persica [17]) | ZEAMX control rating (0-9) (Zea mays [18]) | ABUTH control rating (0-9) (Abutilon theophrasti [19]) | ALOMY control rating (0-9) (Alopecurus myosuroides [20]) | also measured |
| --- | --- | --- | --- | --- | --- | --- | --- | --- | --- | --- | --- | --- | --- | --- | --- | --- | --- | --- | --- | --- | --- |
| C[C@H](NC(=O)c1nnc(-c2c(F)cccc2F)o1)c1ccccc1 [Example 24] | 7 (good herbicidal effect) | 2 (slight effect) | 9 (complete kill) | 3 (moderate effect) | 8 (approaching complete kill) | 0 (no effect) | 0 (no effect) | 0 (no effect) | 0 (no effect) | 2 (slight effect) | 7 (good herbicidal effect) | 9 (complete kill) | 9 (complete kill) | 8 (approaching complete kill) | 8 (approaching complete kill) | 0 (no effect) | 9 (complete kill) | 0 (no effect) | 9 (complete kill) | 2 (slight effect) | AMARE control rating (0-9) (Amaranthus retroflexus [21]): 9 (complete kill); AMBEL control rating (0-9) (Ambrosia artemisifolia [22]): 8 (approaching complete kill); CHEAL control rating (0-9) (Chenopodium album [23]): 9 (complete kill); GALAP control rating (0-9) (Galium aparine [24]): 5 (definite injury); GLXMA control rating (0-9) (Glycine max [25]): 4 (injury); GOSHI control rating (0-9) (Gossypium hirsutum [26]): 8 (approaching complete kill); HORVW control rating (0-9) (Hordeum vulgare [27]): 2 (slight effect); IPOHE control rating (0-9) (Ipomoea hederacea [28]): 5 (definite injury); LAMPU control rating (0-9) (Lamium purpureum [29]): 8 (approaching complete kill); MATIN control rating (0-9) (Matricaria inodora [30]): 4 (injury); PAPRH control rating (0-9) (Papaver rhoeas [31]): 6 (herbicidal effect); SETVI control rating (0-9) (Setaria viridis [32]): 6 (herbicidal effect); STEME control rating (0-9) (Stellaria media [33]): 8 (approaching complete kill); TRZAW control rating (0-9) (Triticum aestivum [34]): 3 (moderate effect); VERPE control rating (0-9) (Veronica persica [35]): 9 (complete kill); ZEAMX control rating (0-9) (Zea mays [36]): 2 (slight effect) |
| C[C@H](NC(=O)c1nnc(-c2c(Cl)cccc2Cl)o1)c1ccccc1 [Example 25] | 0 (no effect) | 0 (no effect) | 3 (moderate effect) | 0 (no effect) | 0 (no effect) | 0 (no effect) | 0 (no effect) | 0 (no effect) | 0 (no effect) | 0 (no effect) | 0 (no effect) | 0 (no effect) | 3 (moderate effect) | 0 (no effect) | 0 (no effect) | 0 (no effect) | 0 (no effect) | 0 (no effect) | 1 (trace effect) | 0 (no effect) | AMARE control rating (0-9) (Amaranthus retroflexus [21]): 5 (definite injury); AMBEL control rating (0-9) (Ambrosia artemisifolia [22]): 0 (no effect); CHEAL control rating (0-9) (Chenopodium album [23]): 5 (definite injury); GALAP control rating (0-9) (Galium aparine [24]): 0 (no effect); GLXMA control rating (0-9) (Glycine max [25]): 1 (trace effect); GOSHI control rating (0-9) (Gossypium hirsutum [26]): 0 (no effect); HORVW control rating (0-9) (Hordeum vulgare [27]): 0 (no effect); IPOHE control rating (0-9) (Ipomoea hederacea [28]): 1 (trace effect); LAMPU control rating (0-9) (Lamium purpureum [29]): 1 (trace effect); MATIN control rating (0-9) (Matricaria inodora [30]): 0 (no effect); PAPRH control rating (0-9) (Papaver rhoeas [31]): 2 (slight effect); SETVI control rating (0-9) (Setaria viridis [32]): 0 (no effect); STEME control rating (0-9) (Stellaria media [33]): 0 (no effect); TRZAW control rating (0-9) (Triticum aestivum [34]): 0 (no effect); VERPE control rating (0-9) (Veronica persica [35]): 0 (no effect); ZEAMX control rating (0-9) (Zea mays [36]): 0 (no effect) |
